From PubChem BioAssay (NCI)
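Step 1: Grow cells in 96-well plates. Step 2: Expose to compound for 48 hours at 5 concentrations. Step 3: Interpolate endpoints linearly; if unreached, use highest concentration. TGI is the concentration that stops growth completely.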

Tests used:
Test in all cases: NCI-60 cell line screen, 48 h
[1] = tested on: COLO 205 colon
[2] = tested on: HCT-15 colon
[3] = tested on: MALME-3M melanoma
[4] = tested on: ACHN renal
[5] = tested on: BT-549 breast
[6] = tested on: SF-268 CNS
[7] = tested on: HL-60(TB) leukemia
[8] = tested on: SW-620 colon
[9] = tested on: NCI/ADR-RES ovarian
[10] = tested on: K-562 leukemia
[11] = tested on: NCI-H226 lung
[12] = tested on: MDA-MB-435
[13] = tested on: LOX IMVI melanoma
[14] = tested on: OVCAR-5 ovarian
[15] = tested on: SK-MEL-28 melanoma
[16] = tested on: SN12C renal
[17] = tested on: DU-145 prostate
[18] = tested on: IGROV1 ovarian
[19] = tested on: T-47D breast
[20] = tested on: HOP-92 NSCLC
[21] = tested on: M14 melanoma
[22] = tested on: NCI-H522 lung
[23] = tested on: OVCAR-3 ovarian
[24] = tested on: SNB-75 CNS
[25] = tested on: A549 NSCLC
[26] = tested on: SK-MEL-2 melanoma
[27] = tested on: UACC-62 melanoma
[28] = tested on: SF-295 CNS
[29] = tested on: HT29 colon
[30] = tested on: OVCAR-4 ovarian
[31] = tested on: EKVX NSCLC
[32] = tested on: HS 578T breast
[33] = tested on: TK-10 renal
[34] = tested on: HCT-116 colon
[35] = tested on: SF-539 CNS
[36] = tested on: NCI-H23 lung
[37] = tested on: OVCAR-8 ovarian
[38] = tested on: A498 renal
[39] = tested on: RPMI-8226 leukemia
[40] = tested on: U251 CNS
[41] = tested on: SNB-19 CNS
[42] = tested on: HOP-62 NSCLC
[43] = tested on: PC-3 prostate
[44] = tested on: SK-OV-3 ovarian
[45] = tested on: CAKI-1 renal
[46] = tested on: SK-MEL-5 melanoma
[47] = tested on: MDA-MB-231 breast
[48] = tested on: SR leukemia
[49] = tested on: UACC-257 melanoma
[50] = tested on: HCC-2998 colon
[51] = tested on: UO-31 renal
[52] = tested on: MOLT-4 leukemia
[53] = tested on: MCF7 breast
[54] = tested on: KM12 colon
[55] = tested on: RXF 393 renal
[56] = tested on: MDA-N
[57] = tested on: CCRF-CEM leukemia
[58] = tested on: NCI-H460 lung
[59] = tested on: 786-0 renal

`CCOP(=O)(OCC)C(c1ccc(F)cc1)N(C(=O)NC(F)(F)F)c1cccc(C(F)(F)F)c1` (stereo not given) gave a TGI [1] greater than 100 µM, a TGI [2] greater than 100 µM and a TGI [3] greater than 100 µM. It also gave a TGI [4] greater than 100 µM, a TGI [5] greater than 100 µM and a TGI [6] greater than 100 µM. It also gave a TGI [7] greater than 100 µM, a TGI [8] greater than 100 µM and a TGI [9] greater than 100 µM. For the same molecule, the TGI [10] was greater than 100 µM, the TGI [11] was greater than 100 µM and the TGI [12] was greater than 100 µM. The TGI [13] was greater than 100 µM, the TGI [14] was greater than 100 µM and the TGI [15] was greater than 100 µM. It also gave a TGI [16] greater than 100 µM, a TGI [17] greater than 100 µM and a TGI [18] greater than 100 µM. The TGI [19] was greater than 100 µM, the TGI [20] was 98.6 µM and the TGI [21] was greater than 100 µM. It also gave a TGI [22] greater than 100 µM, a TGI [23] greater than 100 µM and a TGI [24] greater than 100 µM. For the same molecule, the TGI [25] was greater than 100 µM, the TGI [26] was greater than 100 µM and the TGI [27] was greater than 100 µM. It also gave a TGI [28] greater than 100 µM, a TGI [29] greater than 100 µM and a TGI [30] greater than 100 µM. The TGI [31] was greater than 100 µM, the TGI [32] was greater than 100 µM and the TGI [33] was greater than 100 µM. It also gave a TGI [34] greater than 100 µM, a TGI [35] greater than 100 µM and a TGI [36] greater than 100 µM. The TGI [37] was greater than 100 µM, the TGI [38] was greater than 100 µM and the TGI [39] was greater than 100 µM. For the same molecule, the TGI [40] was greater than 100 µM, the TGI [41] was greater than 100 µM and the TGI [42] was greater than 100 µM. For the same molecule, the TGI [43] was greater than 100 µM, the TGI [44] was greater than 100 µM and the TGI [45] was greater than 100 µM. For the same molecule, the TGI [46] was greater than 100 µM, the TGI [47] was greater than 100 µM and the TGI [48] was greater than 100 µM. It also gave a TGI [49] greater than 100 µM, a TGI [50] greater than 100 µM and a TGI [51] greater than 100 µM. For the same molecule, the TGI [52] was greater than 100 µM, the TGI [53] was greater than 100 µM and the TGI [54] was greater than 100 µM. For the same molecule, the TGI [55] was greater than 100 µM, the TGI [56] was greater than 100 µM and the TGI [57] was greater than 100 µM. For the same molecule, the TGI [58] was greater than 100 µM.
`CCN1CCN(c2nc3ccccc3c3c2CCOc2ccccc2-3)CC1` gave a TGI [1] of 37.2 µM, a TGI [2] of 40.1 µM and a TGI [3] of 35.3 µM. For the same molecule, the TGI [4] was greater than 100 µM, the TGI [5] was greater than 100 µM and the TGI [6] was greater than 100 µM. For the same molecule, the TGI [7] was greater than 77.3 µM, the TGI [8] was greater than 67.5 µM and the TGI [9] was greater than 78.1 µM. The TGI [10] was greater than 100 µM, the TGI [11] was greater than 77.9 µM and the TGI [12] was greater than 62.7 µM. For the same molecule, the TGI [13] was 34.1 µM, the TGI [14] was greater than 65.2 µM and the TGI [15] was 32.4 µM. For the same molecule, the TGI [16] was greater than 84 µM, the TGI [17] was greater than 31.6 µM and the TGI [18] was greater than 58.3 µM. The TGI [19] was greater than 69.8 µM, the TGI [20] was greater than 73.1 µM and the TGI [21] was 38.4 µM. It also gave a TGI [22] greater than 62.3 µM, a TGI [23] greater than 100 µM and a TGI [24] greater than 62.6 µM. It also gave a TGI [25] greater than 69.3 µM, a TGI [26] greater than 67.4 µM and a TGI [27] of 34.7 µM. It also gave a TGI [28] greater than 63 µM, a TGI [29] greater than 51.5 µM and a TGI [30] greater than 100 µM. For the same molecule, the TGI [31] was greater than 100 µM, the TGI [32] was greater than 59.2 µM and the TGI [33] was greater than 56.9 µM. For the same molecule, the TGI [59] was greater than 55.1 µM, the TGI [34] was greater than 59 µM and the TGI [35] was greater than 65.2 µM. The TGI [36] was greater than 100 µM, the TGI [37] was greater than 75.5 µM and the TGI [38] was greater than 57.4 µM. For the same molecule, the TGI [39] was 50 µM, the TGI [40] was greater than 79.2 µM and the TGI [41] was greater than 75.1 µM. The TGI [42] was greater than 100 µM, the TGI [43] was greater than 90.9 µM and the TGI [44] was greater than 70.7 µM. It also gave a TGI [45] greater than 55.3 µM, a TGI [46] of 36.7 µM and a TGI [47] greater than 61.2 µM. For the same molecule, the TGI [48] was 24.8 µM, the TGI [49] was 34.8 µM and the TGI [50] was 37.3 µM. The TGI [51] was greater than 66 µM, the TGI [52] was greater than 56 µM and the TGI [53] was greater than 56.5 µM. For the same molecule, the TGI [54] was greater than 56 µM, the TGI [55] was greater than 65.1 µM and the TGI [56] was greater than 55.8 µM. For the same molecule, the TGI [57] was greater than 83.6 µM and the TGI [58] was greater than 73.9 µM.
Molecule `N#Cc1c(-c2ccccc2)[nH]c2ccc(Cl)cc2c1=O` has a TGI [1] greater than 100 µM, a TGI [2] greater than 100 µM and a TGI [3] greater than 100 µM. It also gave a TGI [4] greater than 100 µM, a TGI [5] of 80.9 µM and a TGI [6] greater than 100 µM. The TGI [7] was greater than 100 µM, the TGI [8] was greater than 100 µM and the TGI [9] was greater than 100 µM. For the same molecule, the TGI [10] was greater than 100 µM, the TGI [11] was greater than 100 µM and the TGI [12] was greater than 100 µM. For the same molecule, the TGI [13] was greater than 100 µM, the TGI [14] was greater than 100 µM and the TGI [15] was greater than 100 µM. It also gave a TGI [16] greater than 100 µM, a TGI [17] greater than 100 µM and a TGI [18] greater than 100 µM. The TGI [19] was greater than 100 µM, the TGI [20] was 51.1 µM and the TGI [21] was greater than 100 µM. It also gave a TGI [22] greater than 100 µM, a TGI [23] greater than 100 µM and a TGI [24] greater than 100 µM. It also gave a TGI [25] greater than 100 µM, a TGI [26] of 94.3 µM and a TGI [27] greater than 100 µM. It also gave a TGI [28] of 66.2 µM, a TGI [29] greater than 100 µM and a TGI [30] greater than 100 µM. The TGI [31] was greater than 100 µM, the TGI [32] was greater than 100 µM and the TGI [33] was 90.6 µM. The TGI [59] was greater than 100 µM, the TGI [34] was greater than 100 µM and the TGI [35] was greater than 100 µM. The TGI [36] was greater than 100 µM, the TGI [37] was greater than 100 µM and the TGI [39] was greater than 100 µM. For the same molecule, the TGI [40] was 75.9 µM, the TGI [41] was 59.9 µM and the TGI [42] was 74 µM. For the same molecule, the TGI [43] was greater than 100 µM, the TGI [44] was greater than 100 µM and the TGI [45] was greater than 100 µM. For the same molecule, the TGI [46] was greater than 100 µM, the TGI [47] was 89.7 µM and the TGI [48] was greater than 100 µM. For the same molecule, the TGI [49] was greater than 100 µM, the TGI [50] was greater than 100 µM and the TGI [51] was 44 µM. The TGI [52] was greater than 100 µM, the TGI [53] was greater than 100 µM and the TGI [54] was greater than 100 µM. The TGI [55] was 49 µM, the TGI [56] was greater than 100 µM and the TGI [57] was greater than 100 µM. It also gave a TGI [58] greater than 100 µM.
